Reference: patent publication US9840500B2, “Compounds as dual inhibitors of histone methyltransferases and DNA methyltransferases” (FUNDACIÓN PARA LA INVESTIGACIÓN MÉDICA APLICADA, priority 2014, dated 2017)

Experiments:
LAL-CUN-2 = experiment: Cell proliferation assay, LAL-CUN-2 (ALL); assay type: cell-based; conditions: 48 hours of treatment; Table 3
Description: (§1) Cell proliferation was analyzed after 48 hours of in vitro treatment using the CellTiter 96 Aqueous One Solution Cell Proliferation Assay (Promega, Madison, Wis.). This is a colorimetric method for determining the number of viable cells in proliferation.
(§2) For the assay, suspension cells were cultured by triplicate at a density of 1×10^6 cells/ml in 96-well plates (100.000 cells/well, 100 μl/well), except for OCILY-3 and OCILY-10 cell lines which were cultured at a density of 0.5×10^6 cells/ml (50.000 cells/well, 100 μl/well) and for HepG2, Hep3B and PLC/PRF/5 cell ines which were cultured at a density of 3000 cells/well, 100 μl/well). Adherent cells were obtained from 80-90% confluent flasks and 100 μl of cells were seeded at a density of 5000 cells/well in 96-well plates by triplicate. Before addition of the compounds, adherent cells were allowed to attach to the bottom of the wells for 12 hours. In all cases, only the 60 inner wells were used to avoid any border effects.
(§3) After 48 hours of treatment, plates with suspension cells were centrifuged at 800 g for 10 minutes and medium was removed. The plates with adherent cells were flicked to remove medium. Then, cells were incubated with 100 ul/well of medium and 20 ul/well of CellTiter 96 Aqueous One Solution reagent. After 1-3 hours of incubation at 37° C., absorbance was measured at 490 nm in a 96-well plate reader. The background absorbance was measured in wells with only cell line medium and solution reagent. Data was calculated as a percentage of total absorbance of treated cell/absorbance of non treated cells.

CEMO-1 = experiment: Cell proliferation assay, CEMO-1 (ALL); assay type: cell-based, human; conditions: Homo sapiens; 48 hours of treatment; Table 3
Description: as §1, §2, §3

DNMT1 = DNMT1 (Homo sapiens, UniProt P26358); experiment: DNMT1 enzyme activity assay (TR-FRET, EPIgeneous methyltransferase assay); assay type: biochemical
Description: The biochemical assay to measure DNMT1 enzyme activity relies on time-resolved fluorescence energy transfer (TR-FRET) between lumi4-Tb (donor) and d2 (acceptor) using the EPIgeneous methyltransferase assay (CisBio Cat#62SAHPEB). […] TR-FRET signal is inversely proportional to the concentration of SAH, product of DNMT1 enzyme activity, in the sample.
The human DNMT1 was obtained from Reaction Biology Corp. (Cat# DMT-21-124). […] Final percentage of DMSO was 0.5%. • 2 μl of 1 nM DNMT1 enzyme diluted in assay buffer.
(§4) For each well, fluorescence was measured at 620 nm and 665 nm. A ratio (665 nm/620 nm) was then calculated in order to minimize medium interferences. Positive control was obtained in the presence of the vehicle of the compounds. Negative control was obtained in the absence of G9a enzyme activity. Calculated IC50 values were determined using GraphPrism using 4-parameters inhibition curve.

OCI-Ly10 = experiment: Cell proliferation assay, OCI-Ly10 (ABC-DLBCL); assay type: cell-based; conditions: Homo sapiens, 48 hours of treatment, Table 3
Description: as §1, §2, §3

OCI-Ly3 = experiment: Cell proliferation assay, OCI-Ly3 (ABC-DLBCL); assay type: cell-based; conditions: Homo sapiens, 48 hours of treatment, Table 3
Description: as §1, §2, §3

human G9a enzyme = biological target: T1, human G9a enzyme (Homo sapiens, UniProt Q96KQ7); experiment: G9a enzyme activity assay (TR-FRET); assay type: biochemical
T1 sequence (Q96KQ7 1-1210): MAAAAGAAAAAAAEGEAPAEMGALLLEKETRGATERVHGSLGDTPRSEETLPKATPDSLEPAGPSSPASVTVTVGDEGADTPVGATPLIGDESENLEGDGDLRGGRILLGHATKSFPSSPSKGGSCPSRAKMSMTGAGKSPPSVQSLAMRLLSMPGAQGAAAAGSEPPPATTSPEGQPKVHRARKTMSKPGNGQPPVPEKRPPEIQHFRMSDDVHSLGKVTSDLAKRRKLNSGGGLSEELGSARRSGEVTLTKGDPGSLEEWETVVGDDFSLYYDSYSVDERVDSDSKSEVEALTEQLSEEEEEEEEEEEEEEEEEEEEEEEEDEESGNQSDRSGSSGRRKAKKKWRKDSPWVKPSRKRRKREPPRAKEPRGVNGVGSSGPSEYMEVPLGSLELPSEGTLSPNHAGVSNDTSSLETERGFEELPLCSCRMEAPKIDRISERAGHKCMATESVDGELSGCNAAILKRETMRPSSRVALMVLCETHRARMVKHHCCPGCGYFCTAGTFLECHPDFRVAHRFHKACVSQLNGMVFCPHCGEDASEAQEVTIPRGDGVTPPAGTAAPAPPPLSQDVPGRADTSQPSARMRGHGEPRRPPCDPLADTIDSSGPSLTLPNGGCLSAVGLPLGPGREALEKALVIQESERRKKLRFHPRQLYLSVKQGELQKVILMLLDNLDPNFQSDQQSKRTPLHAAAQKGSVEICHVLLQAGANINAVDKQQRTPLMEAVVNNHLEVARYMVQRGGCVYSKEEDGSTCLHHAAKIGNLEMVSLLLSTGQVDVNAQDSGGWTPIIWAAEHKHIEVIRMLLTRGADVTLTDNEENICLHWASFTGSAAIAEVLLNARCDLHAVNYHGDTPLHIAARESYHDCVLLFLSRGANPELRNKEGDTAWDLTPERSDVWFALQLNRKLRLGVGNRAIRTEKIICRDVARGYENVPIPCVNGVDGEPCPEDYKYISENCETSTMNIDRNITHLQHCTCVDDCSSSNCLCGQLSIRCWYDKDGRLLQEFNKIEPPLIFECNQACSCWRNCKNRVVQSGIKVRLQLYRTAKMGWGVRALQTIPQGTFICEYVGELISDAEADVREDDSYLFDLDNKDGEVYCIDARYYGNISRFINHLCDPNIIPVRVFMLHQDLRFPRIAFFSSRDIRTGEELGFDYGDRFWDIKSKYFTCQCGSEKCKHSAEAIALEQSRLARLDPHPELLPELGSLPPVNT
Description: The biochemical assay to measure G9a enzyme activity relies on time-resolved fluorescence energy transfer (TR-FRET) between europium cryptate (donor) and XL665 (acceptor). […] The human G9a enzyme expressed in a baculovirus infected Sf9 cell expression system was obtained from BPS Biosciences (Cat. #51001). […] Final percentage of DMSO was 0.5%. • 2 μl of 1 nM G9a enzyme diluted in assay buffer. […] Final concentration 150 nM. • Then, add 5 μl of streptavidin XL665 beads. Final concentration of 16 μM. • Read the plate after 1 hour of incubation at room temperature.
as §4

Hep3B = experiment: Cell proliferation assay, Hep3B (HCC); assay type: cell-based; conditions: Homo sapiens, 48 hours of treatment, Table 3
Description: as §1, §2, §3

PLC/PRF/5 = experiment: Cell proliferation assay, PLC/PRF/5 (HCC); assay type: cell-based; conditions: Homo sapiens, 48 hours of treatment, Table 3
Description: as §1, §2, §3

HepG2 = experiment: Cell proliferation assay, HepG2 (HCC); assay type: cell-based; conditions: Homo sapiens, 48 hours of treatment, Table 3
Description: as §1, §2, §3

DNMT1, sequence (P26358 whole entry): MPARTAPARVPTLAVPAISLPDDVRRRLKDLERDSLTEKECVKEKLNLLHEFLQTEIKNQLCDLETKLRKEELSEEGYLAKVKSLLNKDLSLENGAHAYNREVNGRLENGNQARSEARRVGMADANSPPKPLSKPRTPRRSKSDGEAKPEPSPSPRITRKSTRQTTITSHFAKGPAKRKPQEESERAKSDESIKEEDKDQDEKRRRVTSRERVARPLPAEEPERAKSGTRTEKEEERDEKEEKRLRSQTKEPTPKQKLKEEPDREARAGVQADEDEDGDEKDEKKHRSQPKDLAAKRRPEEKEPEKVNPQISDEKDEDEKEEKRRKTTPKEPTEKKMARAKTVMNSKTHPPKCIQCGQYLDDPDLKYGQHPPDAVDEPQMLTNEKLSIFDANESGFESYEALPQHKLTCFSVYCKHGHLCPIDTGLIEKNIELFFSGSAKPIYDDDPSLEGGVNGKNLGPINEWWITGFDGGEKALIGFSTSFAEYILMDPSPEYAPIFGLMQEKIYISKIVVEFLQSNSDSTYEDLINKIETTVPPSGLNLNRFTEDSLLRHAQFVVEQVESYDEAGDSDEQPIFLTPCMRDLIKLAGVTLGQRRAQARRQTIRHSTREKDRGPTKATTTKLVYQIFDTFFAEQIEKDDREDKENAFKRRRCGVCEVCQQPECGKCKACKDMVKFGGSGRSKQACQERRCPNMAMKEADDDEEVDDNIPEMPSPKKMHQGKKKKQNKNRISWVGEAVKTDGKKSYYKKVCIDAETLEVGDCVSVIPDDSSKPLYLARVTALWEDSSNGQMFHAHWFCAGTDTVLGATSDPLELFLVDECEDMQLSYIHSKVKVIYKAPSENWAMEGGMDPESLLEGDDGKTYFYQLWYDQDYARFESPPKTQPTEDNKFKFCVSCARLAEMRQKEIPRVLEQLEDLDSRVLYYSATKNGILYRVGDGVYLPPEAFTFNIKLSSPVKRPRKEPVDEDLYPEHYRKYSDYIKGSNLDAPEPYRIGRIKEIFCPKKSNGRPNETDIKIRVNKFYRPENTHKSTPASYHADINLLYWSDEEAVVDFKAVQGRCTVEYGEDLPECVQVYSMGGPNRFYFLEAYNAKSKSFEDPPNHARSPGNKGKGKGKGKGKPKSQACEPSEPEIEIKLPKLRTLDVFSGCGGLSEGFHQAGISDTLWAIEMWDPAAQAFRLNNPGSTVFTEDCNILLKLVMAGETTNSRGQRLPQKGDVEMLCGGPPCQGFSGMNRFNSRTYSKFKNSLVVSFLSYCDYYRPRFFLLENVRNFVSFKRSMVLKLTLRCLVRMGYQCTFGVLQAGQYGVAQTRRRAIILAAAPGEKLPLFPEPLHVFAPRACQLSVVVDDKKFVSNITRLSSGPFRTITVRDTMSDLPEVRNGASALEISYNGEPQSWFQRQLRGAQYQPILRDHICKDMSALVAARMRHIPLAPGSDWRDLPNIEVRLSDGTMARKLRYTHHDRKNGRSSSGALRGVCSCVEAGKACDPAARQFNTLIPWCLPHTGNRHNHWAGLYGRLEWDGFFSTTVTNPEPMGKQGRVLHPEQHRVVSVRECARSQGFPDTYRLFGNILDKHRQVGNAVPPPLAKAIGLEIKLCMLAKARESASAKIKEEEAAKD

## COc1cc2c(NC3CCNCC3)cc(-c3ccc(C)o3)nc2cc1OCCCN1CCCC1 [Compound 3-08]
LAL-CUN-2
  GI50: 1000 to 10000 nM
CEMO-1
  GI50: 1000 to 10000 nM
DNMT1
  IC50: 100 to 500 nM
OCI-Ly10
  GI50: ≤ 10000 nM
OCI-Ly3
  GI50: 1000 to 10000 nM
Human G9a enzyme
  IC50: < 100 nM

## CNC(=O)CCNc1cc(-c2ccc(C)o2)nc2cc(OCCCN3CCCC3)c(OC)cc12 [Compound 3-19]
Hep3B
  GI50: 1000 to 10000 nM
PLC/PRF/5
  GI50: 1000 to 10000 nM
CEMO-1
  GI50: 1000 to 10000 nM
OCI-Ly10
  GI50: 100 to 1000 nM
OCI-Ly3
  GI50: 100 to 1000 nM
HepG2
  GI50: ≤ 10000 nM

## COc1cc2c(NC3CCCC3)cc(C)nc2cc1OCCCN1CCCC1 [Compound 3-24]
DNMT1
  IC50: 1000 to 10000 nM
OCI-Ly10
  GI50: 1000 to 10000 nM
Human G9a enzyme
  IC50: < 100 nM

## COc1cc2c(NC3CCN(C)CC3)cc(-c3ccoc3)nc2cc1OCCCN1CCCC1 [Compound 3-27]
LAL-CUN-2
  GI50: ≤ 10000 nM
CEMO-1
  GI50: 1000 to 10000 nM
DNMT1
  IC50: 1000 to 10000 nM
OCI-Ly10
  GI50: 100 to 1000 nM
OCI-Ly3
  GI50: ≤ 10000 nM
Human G9a enzyme
  IC50: < 100 nM

## COc1cc2c(NC3CCN(C)CC3)cc(-c3ccc4occc4c3)nc2cc1OCCCN1CCCC1 [Compound 3-28]
CEMO-1
  GI50: 1000 to 10000 nM
DNMT1
  IC50: 500 to 1000 nM
OCI-Ly10
  GI50: < 100 nM
Human G9a enzyme
  IC50: < 100 nM

## COc1cc2c(NC3CCN(C)CC3)cc(-c3ccccc3)nc2cc1OCCCN1CCCC1 [Compound 3-29]
Hep3B
  GI50: 1000 to 10000 nM
PLC/PRF/5
  GI50: 1000 to 10000 nM
CEMO-1
  GI50: 100 to 1000 nM
DNMT1
  IC50: 1000 to 10000 nM
OCI-Ly10
  GI50: 100 to 1000 nM
OCI-Ly3
  GI50: 100 to 1000 nM
Human G9a enzyme
  IC50: < 100 nM
HepG2
  GI50: 1000 to 10000 nM

## COc1cc2c(NC3CCN(C)CC3)cc(-c3ccc(C)[nH]3)nc2cc1OCCCN1CCCC1 [Compound 3-31]
LAL-CUN-2
  GI50: ≤ 10000 nM
CEMO-1
  GI50: 1000 to 10000 nM
DNMT1
  IC50: 100 to 500 nM
OCI-Ly10
  GI50: 100 to 1000 nM
OCI-Ly3
  GI50: 100 to 1000 nM
Human G9a enzyme
  IC50: < 100 nM

## COc1cc2c(NC3CCN(C)CC3)cc(-c3ccco3)nc2cc1OCCCN1CCCC1 [Compound 3-40]
LAL-CUN-2
  GI50: 100 to 1000 nM
CEMO-1
  GI50: < 100 nM
DNMT1
  IC50: 100 to 500 nM
OCI-Ly10
  GI50: < 100 nM
OCI-Ly3
  GI50: < 100 nM
Human G9a enzyme
  IC50: < 100 nM

## CCc1ccc(-c2cc(NC3CCN(C)CC3)c3cc(OC)c(OCCCN4CCCC4)cc3n2)o1 [Compound 3-41]
Hep3B
  GI50: 100 to 1000 nM
PLC/PRF/5
  GI50: 100 to 1000 nM
LAL-CUN-2
  GI50: 100 to 1000 nM
HepG2
  GI50: 100 to 1000 nM

## CCc1ccc(-c2cc(NCC3CCN(C)CC3)c3cc(OC)c(OCCCN4CCCC4)cc3n2)o1 [Compound 3-42]
Hep3B
  GI50: 100 to 1000 nM
PLC/PRF/5
  GI50: 100 to 1000 nM
LAL-CUN-2
  GI50: 100 to 1000 nM
OCI-Ly3
  GI50: 100 to 1000 nM
HepG2
  GI50: < 100 nM
